Laboratory results: US5989832A, “Method for screening for non-tetracycline efflux pump inhibitors” (Microcide Pharmaceuticals, Inc., priority 1995, dated 1999)
“Also recorded” adds a separate entry of the source. Like-named read-outs stand apart in the source and are kept apart here. Peptide text beside a SMILES is read from it.

Tests used:
P. aeruginosa K385 = conditions: cited from earlier work
[1] = test system: P. aeruginosa strain 799/61; experiment: [3H]-tetracycline accumulation assay, strain 799/61 without efflux pumps; format: cell-based, Pseudomonas aeruginosa; conditions: CCCP added
Protocol: A tetracycline accumulation assay was set up to measure the activity of efflux pumps in P. aeruginosa. The assay measures the accumulation of [3H]-tetracycline in bacteria and was optimized for measuring tetracycline accumulation in P. aeruginosa.
A new tetracycline steady state equilibrium is reached when CCCP is added to the cell suspension and pH equilibrates in both sides of the membrane.

[2] = test system: P. aeruginosa strain K385; experiment: microbe, parasite or virus in culture; format: cell-based; conditions: Pseudomonas aeruginosa, K385, 20 h, read-out: growth inhibition in the absence of ciprofloxacin
P. aeruginosa K799/61 [3] = experiment: Susceptibility to tetracycline and ciprofloxacin, pump deficient mutant K799/61
E. coli HN818 = experiment: Susceptibility to acridine orange, AcrAB pump deficient strain HN818; format: cell-based; conditions: acridine orange alone
Text: The effect of L-phenylalanyl-L-arginyl-β-naphthylamide was also studied on an AcrAB pump deficient mutant of E. coli which was obtained by transposon mutagenesis in the laboratory of H. Nikaido.

P. aeruginosa K799/61 [4] = conditions: mutant strain k799/61; cited from earlier work
mexA-mexB-oprM = conditions: insertion mutagenesis; cited from earlier work
[5] = test system: wild-type strains of P. aeruginosa; conditions: cited from earlier work
[6] = test system: P. aeruginosa PAO1, PAO4098E, K385 and 799/61; experiment: Tetracycline accumulation in four P. aeruginosa strains (basal level); format: cell-based, Pseudomonas aeruginosa
Text: Alternatively, efflux pumps are identified by their ability to lower the accumulation of a substrate in a cell. Efflux pumps involved in drug resistance can be identified because they confer resistance to antibiotics. Efflux pumps involved in multidrug resistance in bacteria usually give an intermediate level of resistance to a broad range of antibiotics. Specific mechanism of resistance, including specific efflux pumps, give a much higher level of resistance to one antibiotic or a group of structurally related antibiotics. […] To identify whether an efflux pump is involved in antibiotic resistance in a given strain, accumulation experiments should be performed using antibiotics that it is suspected are exported by the efflux pump. The protein pattern in electrophoresis of cytoplasmic membrane proteins should be studied to identify the overexpression of a protein or the appearance of a new band in the protein pattern using gel electrophoresis. For Gram-negative bacteria, the outer membrane proteins should also be studied. Since efflux pumps are a common occurrence in most bacteria, the basal level of antibiotic susceptibility of a wild type might be caused by naturally occurring efflux pumps. […] Mutants that overexpress the pumps can be isolated using antibiotic-containing media. These mutants will be more resistant to antibiotics and will accumulate lower levels of antibiotics. […]

AcrAE efflux system = conditions: cited from earlier work

## c1ccc(-c2ccccn2)nc1 [2,2'-dipyridyl]
P. aeruginosa K385
  susceptibility associated with production of a 50-kDa outer membrane protein: decreased susceptibility

## N#CC(C#N)=NNc1cccc(Cl)c1 [CCCP, carbonyl cyanide m-chlorophenylhydrazone]
[1]
  tetracycline accumulation: lowered the tetracycline accumulation

## N=C(N)NCCC[C@H](NC(=O)[C@@H](N)Cc1ccccc1)C(=O)Nc1ccc2ccccc2c1 [L-phenylalanyl-L-arginyl-β-naphthylamide] (HELM PEPTIDE1{F.R.[c1ccc2cc(N[*:1])ccc2c1]}$$$$V2.0)
[2]
  inhibition at 10 µg/mL: 1%
P. aeruginosa K799/61 [3]
  effect on susceptibility to tetracycline and ciprofloxacin: no effect

## CN(C)c1ccc2cc3ccc(N(C)C)cc3nc2c1 [acridine orange]
E. coli HN818
  susceptibility of HN818 to acridine orange versus parent strain: more susceptible to acridine orange than the parent strain

## O=C(N[C@H](CO)[C@H](O)c1ccc([N+](=O)[O-])cc1)C(Cl)Cl [chloramphenicol]
P. aeruginosa K799/61 [4]
  capability of pumping out: essentially incapable of pumping out
mexA-mexB-oprM
  susceptibility of the strain with inactivated operon: almost as susceptible as E. coli
[5]
  efflux by wild-type strains: very effectively

## CCn1cc(C(=O)O)c(=O)c2cc(F)c(N3CCNCC3)cc21 [norfloxacin]
[5]
  efflux by wild-type strains: very effectively

## CN(C)C1C(=O)C(C(N)=O)=C(O)C2(O)C(=O)C3=C(O)c4c(O)cccc4C(C)(O)C3CC12 (stereo not shown) [tetracycline]
P. aeruginosa K799/61 [4]
  capability of pumping out: essentially incapable of pumping out
[6]; PAO4098E and K385
  tetracycline accumulation, efflux pump overproducer strains: accumulated lower amounts of tetracycline
[6]; strain 799/61
  intracellular accumulation of tetracycline, strain 799/61 versus others: highest internal concentration; also recorded: accumulated more tetracycline than the wild type PAO1
mexA-mexB-oprM
  susceptibility of the strain with inactivated operon: almost as susceptible as E. coli
[5]
  efflux by wild-type strains: very effectively

## acriflavine
AcrAE efflux system; acrA mutant vs wild type
  steady-state accumulation of acriflavine: increases at least fivefold
AcrAE efflux system; wild-type acrA+ strain
  steady-state accumulation of acriflavine: extremely low
